Key:
[1] = test system: rat globules (red corpuscles); experiment: In vitro anti-sludge activity, curative procedure (protamine sulfate); assay type: cell-based; settings: 25 μg
Experimental: (§1) Said activity was investigated in vitro and in vivo in rats.
(§2) Thrice washed rat globules are diluted to 1/250 in physiological saline. In each of 5 tubes are placed 0.6 ml of this suspension and 0.2 ml physiological saline. To each tube is then added 0-25-50-100 and 200 μg, respectively, of the test derivative contained in 0.2 ml solution. After incubation for one hour at 37° C., 0.2 ml of a solution containing 125 μg/ml protamine sulfate are added, after which the tube is then incubated again for 0.5 hour at 37° C. The globules of each tube are then examined with a Mallases cell, and the percent free globules and the percent aggregates formed by 2, 3, 4, 5 etc.. globules is then recorded.
The experiment was repeated according to a "curvative" procedure; the red corpuscles were first contacted with protamine sulfate and, after incubation for 0.5 hour, 0.2 ml containing 25 μg of test derivative were added thereto, which operation is followed by another incubation for one hour at 37° C. The results obtained are reported in Table III, in which the percent agglomerates as a function of size is indicated.

[2] = test system: A.D.P. induced blood-platelet aggregation; experiment: A.D.P. induced blood-platelet aggregation; assay type: in vivo, Wistar rats; settings: Rattus norvegicus, po; 100 mg/kg orally, rats, 3 hours after treatment, 10 μM A.D.P. solution; read-out: Percent inhibition of blood-platelet aggregation, A.D.P.
Experimental: (§3) A blood sample is taken from the jugular vein of Wistar rats. From this citrated blood and after centifugation, a plasma is reconstituted which contains 600,000 ± 20,000 blood-platelets per ml, which plasma is then used in all aggregation determinations.
(§4) 0.4 ml plasma is placed in a siliconized tube provided with a magnet bar, also siliconized. The tube is introduced into an aggregometer connected to an apparatus which records optical density variations. When light transmission has attained a stable value, 0.5 ml of a solution containing 10 μM A.D.P. (adenosinediphosphate) is added to the tube.
(§5) Blood-platelet aggregation induces an increase of light transmission, followed by a decrease subsequent to the deaggregation phase.
(§6) Different groups of 20 rats each are used, each group being orally administered 100 mg/kg of a test derivative.

[3] = test system: Collagen-induced blood-platelet aggregation; experiment: Collagen-induced blood-platelet aggregation; assay type: in vivo, Wistar rats; settings: Rattus norvegicus, po; 100 mg/kg orally, rats, 3 hours after treatment; read-out: Percent inhibition of blood-platelet aggregation, Collagen
Experimental: as §3, §4, §5
The A.D.P. solution is substituted with a collagen (bovine tendon extract) solution.
as §6

[4] = test system: rat globules (red corpuscles); experiment: In vitro anti-sludge activity, preventive treatment (protamine sulfate); assay type: cell-based
Experimental: as §1, §2

O=C(O)[C@@H]1NCc2sccc2[C@@H]1O (relative stereo) [Example 5, 5-Carboxy-4-hydroxy-4,5,6,7-tetrahydro-thieno[2,3-c]pyridine]
percent agglomerates, size 2 [1]: 11% | percent agglomerates, size 3 [1]: 3% | percent agglomerates, size 4 [1]: 0% | percent agglomerates, size 5 [1]: 0% | percent agglomerates, size 6 [1]: 0% | percent agglomerates, size 7 [1]: 0% | percent agglomerates, size 8 [1]: 0% | percent agglomerates, size 9 [1]: 0% | percent agglomerates, size 10 [1]: 0% | percent free red corpuscles (size of agglomerates 1) [1]: 86% | inhibition at 100 mg/kg [2]: 62.3% | inhibition at 100 mg/kg [3]: 90.5%

O=C(OCc1ccccc1)[C@H]1[C@@H](O)c2sccc2CN1Cc1ccccc1 (relative stereo) [Example 7, 5-Benzyl-6-benzyloxycarbonyl-7-hydroxy-4,5,6,7-tetrahydro-thieno[3,2-c]pyridine]
percent agglomerates, size 2 [1]: 12% | percent agglomerates, size 3 [1]: 3% | percent agglomerates, size 4 [1]: 1% | percent agglomerates, size 5 [1]: 0% | percent agglomerates, size 6 [1]: 0% | percent agglomerates, size 7 [1]: 0% | percent agglomerates, size 8 [1]: 0% | percent agglomerates, size 9 [1]: 0% | percent agglomerates, size 10 [1]: 0% | percent free red corpuscles (size of agglomerates 1) [1]: 84%

O=C(OCc1ccccc1Cl)[C@H]1[C@@H](O)c2sccc2CN1Cc1ccccc1Cl (relative stereo) [Example 8, 5-o-Chlorobenzyl-6-o-chlorobenzyloxycarbonyl-7-hydroxy-4,5,6,7-tetrahydro-thieno[3,2-c]pyridine]
inhibition at 100 mg/kg [2]: 61.8% | inhibition at 100 mg/kg [3]: 90.4%

O=C(OCc1ccccc1F)[C@H]1[C@@H](O)c2ccsc2CN1Cc1ccccc1F (relative stereo) [Example 10, 4-Hydroxy-5-o-fluorobenzyloxycarbonyl-6-o-fluorobenzyl-4,5,6,7-tetrahydro-thieno[2,3-c]pyridine]
inhibition at 100 mg/kg [2]: 62.2% | inhibition at 100 mg/kg [3]: 92.1%

O=C(OCc1ccccc1)[C@H]1[C@@H](O)c2ccsc2CN1Cc1ccccc1 (relative stereo) [Example 11, 4-Hydroxy-5-benzyloxycarbonyl-6-benzyl-4,5,6,7-tetrahydro-thieno[2,3-c]pyridine]
inhibition at 100 mg/kg [2]: 60.5% | inhibition at 100 mg/kg [3]: 91.6%

O=C(O)C1Cc2sc(Cl)cc2CN1 (centres unmarked) [Example 4, 6-Carboxy-2-chloro-4,5,6,7-tetrahydro-thieno[3,2-c]pyridine]
inhibition at 100 mg/kg [2]: 63.1% | inhibition at 100 mg/kg [3]: 91.3%

O=C(OCc1ccccc1)C1Cc2sccc2CN1Cc1ccccc1 (centres unmarked) [Example 12, 5-Benzyl-6-benzyloxycarbonyl-4,5,6,7-tetrahydro-thieno[3,2-c]pyridine]
inhibition at 100 mg/kg [2]: 61.6% | inhibition at 100 mg/kg [3]: 90.8%

O=C(OCc1ccc([N+](=O)[O-])cc1)C1Cc2sccc2CN1Cc1ccc([N+](=O)[O-])cc1 (centres unmarked) [Example 15, 5-p-Nitrobenzyl-6-p-nitrobenzyloxycarbonyl-4,5,6,7-tetrahydro-thieno[3,2-c]pyridine]
percent agglomerates, size 2 [1]: 11% | percent agglomerates, size 3 [1]: 2% | percent agglomerates, size 4 [1]: 0% | percent agglomerates, size 5 [1]: 0% | percent agglomerates, size 6 [1]: 0% | percent agglomerates, size 7 [1]: 0% | percent agglomerates, size 8 [1]: 0% | percent agglomerates, size 9 [1]: 0% | percent agglomerates, size 10 [1]: 0% | percent free red corpuscles (size of agglomerates 1) [1]: 87%

COc1cc(COC(=O)C2Cc3sccc3CN2Cc2cc(OC)c(OC)c(OC)c2)cc(OC)c1OC (centres unmarked) [Example 17, 5-(3,4,5-Trimethoxy-benzyl)-6-(3,4,5-trimethoxy-benzyl-oxycarbonyl)-4,5,6,7-tetrahydro-thieno[3,2-c]pyridine]
inhibition at 100 mg/kg [2]: 61.2% | inhibition at 100 mg/kg [3]: 92%

O=C(OCc1ccccc1)C1Cc2ccsc2CN1Cc1ccccc1 (centres unmarked) [Example 20, 5-Benzyloxycarbonyl-6-benzyl-4,5,6,7-tetrahydro-thieno[2,3-c]pyridine]
inhibition at 100 mg/kg [2]: 60.4% | inhibition at 100 mg/kg [3]: 91.5%

O=C(O)C1Cc2sc(Cl)cc2CN1Cc1ccccc1 (centres unmarked) [Example 26, 5-Benzyl-6-carboxy-2-chloro-4,5,6,7-tetrahydro-thieno[3,2-c]pyridine]
percent agglomerates, size 2 [1]: 12% | percent agglomerates, size 3 [1]: 2% | percent agglomerates, size 4 [1]: 0% | percent agglomerates, size 5 [1]: 0% | percent agglomerates, size 6 [1]: 0% | percent agglomerates, size 7 [1]: 0% | percent agglomerates, size 8 [1]: 0% | percent agglomerates, size 9 [1]: 0% | percent agglomerates, size 10 [1]: 0% | percent free red corpuscles (size of agglomerates 1) [1]: 86%

CCOC(=O)C1Cc2sc(Cl)cc2CN1Cc1ccccc1 (centres unmarked) [Example 27, 2-Chloro-5-benzyl-6-ethoxycarbonyl-4,5,6,7-tetrahydro-thieno[3,2-c]pyridine]
percent agglomerates, size 2 ([4]; 25 μg): 16% | percent agglomerates, size 3 ([4]; 25 μg): 17% | percent agglomerates, size 4 ([4]; 25 μg): 5% | percent agglomerates, size 5 ([4]; 25 μg): 0% | percent agglomerates, size 6 ([4]; 25 μg): 0% | percent agglomerates, size 7 ([4]; 25 μg): 0% | percent agglomerates, size 8 ([4]; 25 μg): 0% | percent agglomerates, size 9 ([4]; 25 μg): 0% | percent agglomerates, size 10 ([4]; 25 μg): 0% | percent agglomerates, size 11 ([4]; 25 μg): 0% | percent agglomerates, size 12 ([4]; 25 μg): 0% | percent agglomerates, size 13 ([4]; 25 μg): 0% | percent free red corpuscles (size of agglomerates 1) ([4]; 25 μg): 62% | percent agglomerates, size 2 ([4]; 50 μg): 20% | percent agglomerates, size 3 ([4]; 50 μg): 10% | percent agglomerates, size 4 ([4]; 50 μg): 4% | percent agglomerates, size 5 ([4]; 50 μg): 0% | percent agglomerates, size 6 ([4]; 50 μg): 0% | percent agglomerates, size 7 ([4]; 50 μg): 0% | percent agglomerates, size 8 ([4]; 50 μg): 0% | percent agglomerates, size 9 ([4]; 50 μg): 0% | percent agglomerates, size 10 ([4]; 50 μg): 0% | percent agglomerates, size 11 ([4]; 50 μg): 0% | percent agglomerates, size 12 ([4]; 50 μg): 0% | percent agglomerates, size 13 ([4]; 50 μg): 0% | percent free red corpuscles (size of agglomerates 1) ([4]; 50 μg): 66% | percent agglomerates, size 2 ([4]; 100 μg): 15% | percent agglomerates, size 3 ([4]; 100 μg): 7% | percent agglomerates, size 4 ([4]; 100 μg): 3% | percent agglomerates, size 5 ([4]; 100 μg): 0% | percent agglomerates, size 6 ([4]; 100 μg): 0% | percent agglomerates, size 7 ([4]; 100 μg): 0% | percent agglomerates, size 8 ([4]; 100 μg): 0% | percent agglomerates, size 9 ([4]; 100 μg): 0% | percent agglomerates, size 10 ([4]; 100 μg): 0% | percent agglomerates, size 11 ([4]; 100 μg): 0% | percent agglomerates, size 12 ([4]; 100 μg): 0% | percent agglomerates, size 13 ([4]; 100 μg): 0% | percent free red corpuscles (size of agglomerates 1) ([4]; 100 μg): 75% | percent agglomerates, size 2 ([4]; 200 μg): 9% | percent agglomerates, size 3 ([4]; 200 μg): 5% | percent agglomerates, size 4 ([4]; 200 μg): 2% | percent agglomerates, size 5 ([4]; 200 μg): 0% | percent agglomerates, size 6 ([4]; 200 μg): 0% | percent agglomerates, size 7 ([4]; 200 μg): 0% | percent agglomerates, size 8 ([4]; 200 μg): 0% | percent agglomerates, size 9 ([4]; 200 μg): 0% | percent agglomerates, size 10 ([4]; 200 μg): 0% | percent agglomerates, size 11 ([4]; 200 μg): 0% | percent agglomerates, size 12 ([4]; 200 μg): 0% | percent agglomerates, size 13 ([4]; 200 μg): 0% | percent free red corpuscles (size of agglomerates 1) ([4]; 200 μg): 84% | percent agglomerates, size 2 [1]: 10% | percent agglomerates, size 3 [1]: 3% | percent agglomerates, size 4 [1]: 0% | percent agglomerates, size 5 [1]: 0% | percent agglomerates, size 6 [1]: 0% | percent agglomerates, size 7 [1]: 0% | percent agglomerates, size 8 [1]: 0% | percent agglomerates, size 9 [1]: 0% | percent agglomerates, size 10 [1]: 0% | percent free red corpuscles (size of agglomerates 1) [1]: 87%

CCOC(=O)C1Cc2sccc2CN1C (centres unmarked) [Example 28, 5-Methyl-6-ethoxycarbonyl-4,5,6,7-tetrahydro-thieno[3,2-c]pyridine]
inhibition at 100 mg/kg [2]: 60.8% | inhibition at 100 mg/kg [3]: 90.2%

COC(=O)C1Cc2sc(Cl)cc2CN1 (centres unmarked) [Example 29]
percent agglomerates, size 2 [1]: 9% | percent agglomerates, size 3 [1]: 2% | percent agglomerates, size 4 [1]: 1% | percent agglomerates, size 5 [1]: 0% | percent agglomerates, size 6 [1]: 0% | percent agglomerates, size 7 [1]: 0% | percent agglomerates, size 8 [1]: 0% | percent agglomerates, size 9 [1]: 0% | percent agglomerates, size 10 [1]: 0% | percent free red corpuscles (size of agglomerates 1) [1]: 87% | inhibition at 100 mg/kg [2]: 62.7% | inhibition at 100 mg/kg [3]: 92.7%

COC(=O)C1Cc2sc(Cl)cc2CN1Cc1ccccc1Cl (centres unmarked) [Example 30, 2-Chloro-5-o.chlorobenzyl-6-methoxycarbonyl-4,5,6,7-tetrahydro-thieno[3,2-c]pyridine]
inhibition at 100 mg/kg [2]: 62.4% | inhibition at 100 mg/kg [3]: 93%

Source: US4147787A, “4,5,6,7-Tetrahydro-thieno[2,3-c]-and [3,2-c]-pyridines, and therapeutic compositions containing the same” (Parcor, priority 1977, dated 1979)
